Laboratory results taken from PubChem BioAssay (NCI).
“And” between values parts separate entries of the source, which are not always exact repeats. Identical values can stand only once.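 Briefly, cells in 96-well plates were exposed to five compound concentrations for 48 h, and endpoints were estimated by linear interpolation. GI50 marks 50% less growth. The concentration for full growth arrest is given as TGI.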

Legend:
Assay in all cases: growth of human tumour cells (NCI), 48 h
HCC-2998 colon = test system: HCC-2998 colon
SK-MEL-2 melanoma = test system: SK-MEL-2 melanoma
HOP-92 NSCLC = test system: HOP-92 NSCLC
OVCAR-5 ovarian = test system: OVCAR-5 ovarian
A549 NSCLC = test system: A549 NSCLC
NCI-H522 lung = test system: NCI-H522 lung
TK-10 renal = test system: TK-10 renal
SF-268 CNS = test system: SF-268 CNS
786-0 renal = test system: 786-0 renal
HT29 colon = test system: HT29 colon

SMILES | GI50 (HCC-2998 colon) | TGI (HCC-2998 colon) | GI50 (SK-MEL-2 melanoma) | TGI (SK-MEL-2 melanoma) | GI50 (HOP-92 NSCLC) | TGI (HOP-92 NSCLC) | GI50 (OVCAR-5 ovarian) | TGI (OVCAR-5 ovarian) | GI50 (A549 NSCLC) | TGI (A549 NSCLC) | GI50 (NCI-H522 lung) | TGI (NCI-H522 lung) | GI50 (TK-10 renal) | TGI (TK-10 renal) | GI50 (SF-268 CNS) | TGI (SF-268 CNS) | GI50 (786-0 renal) | TGI (786-0 renal) | GI50 (HT29 colon) | TGI (HT29 colon)
CCCCCCCCCCCCNC(=O)[C@H]1CSC(c2ccsc2)N1 (stereo partly drawn) | 955 nM | 2.15 µM | 974 nM | 1.76 µM | 1010 nM | 2.02 µM | 991 nM | 1.83 µM | 6770 nM | 13.7 µM | 5140 nM | 11.8 µM | 897 nM | 1.63 µM | 613 nM | 1.45 µM | 916 nM | 1.65 µM | 995 nM | 1.83 µM
Cc1cc(Nc2cc(N3CCN(C)CC3)nc(C#Cc3ccccc3)n2)n[nH]1 | 2710 nM | 13.1 µM | 1240 nM | 7.9 µM | 843 nM | 4.84 µM | 3580 nM | 18.8 µM | 2810 nM | 13.3 µM | – | – | 897 nM | 6.79 µM | 3820 nM | 16.8 µM | 3130 nM | 14.2 µM | 2020 nM | 8.08 µM
COc1ccc(-c2nc(/C=N/Nc3cc(C)nc4ccc(Br)cc34)c(C)o2)cc1 | 1960 nM | 3.65 µM | 1990 nM | 3.9 µM | 1450 nM | 3.06 µM | 1950 nM | 3.41 µM | 1740 nM | 3.33 µM | 1800 nM | 3.67 µM | 1970 nM | 3.45 µM | – | – | 1710 nM | 3.22 µM | 1620 nM | 3.24 µM
Oc1cccc(-c2nc(N3CCOCC3)c3oc4ncccc4c3n2)c1 | 1850 nM and 401 nM | 8.87 µM and > 33.9 µM | 147 nM and 295 nM | 0.641 µM and 1.92 µM | 23.7 nM and 24.3 nM | 0.131 µM and 0.216 µM | 2380 nM and 2840 nM | > 26.6 µM | 317 nM and 225 nM | – | 65.4 nM and 81.9 nM | 0.666 µM and 4.67 µM | 1260 nM and 1510 nM | 4.01 µM and 4.58 µM | 196 nM and 181 nM | > 100 µM and 19.9 µM | 231 nM and 246 nM | 1.67 µM and 1.28 µM | 6520 nM and 8370 nM | > 100 µM
O=C(O)C(Cc1c[nH]c2ccccc12)N1C(=O)c2ccccc2C1=O (stereo not drawn) | – | > 100 µM | – | > 100 µM | – | > 100 µM | – | > 100 µM | – | > 100 µM | – | > 100 µM | – | > 100 µM | – | > 100 µM | – | > 100 µM | – | > 100 µM
C(/C=C/N1CCCC1)=C\c1nc(N2CCCC2)c2ccccc2n1 | – | 31.3 µM | – | 39.1 µM | – | – | – | 28.9 µM | – | > 100 µM | – | – | – | > 100 µM | – | 41.7 µM | – | 30.4 µM | – | 39.4 µM
COc1ccc(C2NC(=S)NC3=C2COc2ccc(F)cc23)cc1OC (stereo not drawn) | – | – | 55400 nM | > 100 µM | 41700 nM | > 100 µM | 18600 nM | 48.1 µM | 10900 nM | 36.7 µM | 49200 nM | > 100 µM | 31200 nM | > 100 µM | 19000 nM | > 100 µM | 28600 nM | > 100 µM | – | –
O=C1c2c(O)ccc(O)c2C(=O)c2c(NCCNCCO)ccc(NCCNCCO)c21 | – | 1.04 µM and 0.795 µM and 0.908 µM | – | 0.657 µM and 0.6 µM and 0.926 µM | 31.2 nM | 0.773 µM and 0.425 µM and 0.0779 µM | – | 1.05 µM and 4.75 µM and 2.74 µM | – | 0.418 µM and 0.627 µM | 23.2 nM and 9.69 nM and 54.4 nM | 0.101 µM and 0.0831 µM and 0.574 µM | – | 1.36 µM and 0.654 µM and 2.05 µM | – | 0.32 µM and 0.696 µM and 0.845 µM | – | 0.13 µM and 0.299 µM and 0.584 µM | – | 1.05 µM and 0.761 µM and 3.63 µM
O=C(/C(=N/Nc1cn[nH]c(=O)c1Cl)c1ccccc1)c1ccccc1 | – | 76.7 µM | – | > 100 µM | – | > 100 µM | – | – | – | > 100 µM | – | 77.2 µM | – | > 100 µM | – | – | – | 68.7 µM | – | 59.1 µM
O=C(NOC(=O)c1ccc([N+](=O)[O-])cc1)c1ccc(Cl)cc1 | – | > 100 µM | – | > 100 µM | – | > 100 µM | – | > 100 µM | – | > 100 µM | – | 82.2 µM | – | – | – | > 100 µM | – | > 100 µM | – | > 100 µM
C=C[C@@]1(C)CC(=O)[C@]2(O)[C@@]3(C)[C@@H](O)CCC(C)(C)[C@@H]3[C@H](O)[C@@H](OC(C)=O)[C@@]2(C)O1 | – | > 100 µM | – | > 100 µM | – | > 100 µM | – | > 100 µM | – | > 100 µM | – | > 100 µM | – | > 100 µM | – | > 100 µM | – | > 100 µM | – | > 100 µM
Cc1cc(C)c2nccc(NCCCN(C)C)c2c1[N+](=O)[O-] | – | 51.1 µM | – | 58.8 µM | – | – | – | > 100 µM | – | > 100 µM | – | 27.5 µM | – | > 100 µM | – | 95 µM | – | > 100 µM | – | 41.5 µM
COc1ccc(-c2nn3ncccc3c2-c2ccnc(Nc3cccc(C(F)(F)F)c3)n2)cc1 | 5330 nM | 18.6 µM | 8110 nM | 21.3 µM | 3030 nM | 16.1 µM | 6700 nM | > 25 µM | 9380 nM | > 25 µM | 6390 nM | > 21.7 µM | 8490 nM | > 22.5 µM | 9860 nM | > 25 µM | 9980 nM | > 25 µM | 7560 nM | > 25 µM
CC1(C)Oc2ccccc2N2O[C@@H]3C(=O)N(c4ccccc4)C(=O)[C@@H]3C21c1ccccc1 (stereo partly drawn) | – | > 100 µM | – | 53.3 µM | – | – | – | > 100 µM | – | 48.4 µM | – | 93.2 µM | – | 33.1 µM | – | > 100 µM | – | 30.3 µM | – | 68.5 µM
COc1cc(/C=C2/C(=O)N(C(=O)c3ccccc3O)N=C2C)ccc1O | – | > 100 µM | – | > 100 µM | – | > 100 µM | – | > 100 µM | – | > 100 µM | – | – | – | > 100 µM | – | > 100 µM | – | > 100 µM | – | > 100 µM
O=c1c2ccccc2c(=O)c2c1sc1c(=O)c3ccc(O)cc3c(=O)c12 | – | – | 1470 nM | 3.88 µM | – | – | 1740 nM | 3.65 µM | 222 nM | 0.497 µM | – | – | 2240 nM | 3.97 µM | 1040 nM | 7.62 µM | 1800 nM | 4.44 µM | 2390 nM | 6.01 µM
O=C1Nc2ccc(Br)cc2C1=Nc1ccc(Cl)cc1 | – | 39.7 µM | – | – | – | > 100 µM | – | 39.8 µM | – | > 100 µM | – | 24.6 µM | – | 51.4 µM | – | 55.8 µM | – | > 100 µM | – | 38.5 µM
